pIC50: −log10 of the molar value.
What was measured:
[1] = target: PI3Kα (Homo sapiens (Human), UniProt P42336); experiment: In vitro PI3 kinase enzyme assay (PI3K ATPLoss); format: biochemical; details: average if run more than once
Method: Recombinant Expression of PI3K Enzymes
Full length p110 subunits of PI3K α, β and δ, N-terminally labeled with polyHis tag, can be co-expressed with p85 with Baculo virus expression vectors in sf9 insect cells. P110/p85 heterodimers can be purified by sequential Ni-NTA, Q-HP, Superdex-100 chromatography. Purified α, β and δ isozymes can be stored at −20° C. in 20 mM Tris, pH 8, 0.2M NaCl, 50% glycerol, 5 mM DTT, 2 mM Na cholate. […] The γ isozyme can be purified by sequential Ni-NTA, Superdex-200, Q-HP chromatography. The γ isozyme can be stored frozen at −80° C. in NaH2PO4, pH 8, 0.2M NaCl, 1% ethylene glycol, 2 mM β-mercaptoethanol.
In Vitro PI3 Kinase Enzyme Assays (PI3K ATPLoss)
PI3K enzyme assays (alpha, beta, delta and gamma) can be performed in 25 μL with the above final concentrations of components in white polyproplyene plates. Phosphatidyl inositol phosphoacceptor, PtdIns(4,5)P2 (e.g., P4508) can be obtained from Echelon Biosciences, Salt Lake City, Utah. […] Test compounds can be dissolved in DMSO and diluted with three-fold serial dilutions. The compound in DMSO (1 μL) may be added per test well, and the inhibition relative to reactions containing no compound, with and without enzyme can be determined. After assay incubation at RT, the reaction can be stopped and residual ATP can be determined by addition of an equal volume of a commercial ATP bioluminescence kit (Perkin Elmer EasyLite, Perkin Elmer, Waltham, Mass.) according to the manufacturer's instructions, and detected using an Analyst GT luminometer.

[2] = test system: phosphorylation of Akt at Serine 473 in U87 MG cells; experiment: pAkt AlphaScreen (U87 cell); format: cell-based; details: Homo sapiens, U-87 MG, 2 h; pAkt Ser473, U87 MG cells, compound two hours; average if run more than once
Method: pAkt AlphaScreen (U87 Cell)
The pAkt AlphaScreen® assay (PerkinElmer, Waltham, Mass.) determines whether there is phosphorylation of Akt at Serine 473 by recruitment of a phosphospecific antibody. This assay was performed using U87 MG cells. The U87 growth media consists of MEM (Gibco, Carlsbad, Calif.) supplemented with 10% FBS (Gibco), 1× Non-Essential Amino Acids (Gibco) and 1× Penicillin/Streptomycin/Glutamine (Gibco). The cells were maintained weekly using 0.05% Trypsin (Gibco) and replated in 150 mm TC—Treated Culture Dishes (Corning, Corning, N.Y.).
The first day of the assay, the adherent cells were trypsinized, media was added to the loose cells and cells were mixed to a homogenous mixture. 0.5 ml of the homogenous mixture was counted on the Beckman Coulter® Vi-CELL™ XR (Fullerton, Calif.). 50 frames of cells were counted and the number of viable cells was determined. The cells were then diluted to 0.25 million cells per ml, and centrifuged at 200 rcf for 5 minutes. The media was removed and the cells were reconstituted in fresh media for plating. The cells were plated at 20 μl per well on the PerkinElmer® Flexprop PLUS in Low Volume 384 Well White Tissue Culture Plates (Corning) with a final cell density of 5K cells per well. The plates were incubated overnight at 37° Celsius, 5% CO2.
On the second day, the compound plates were prepared, the cells were treated with compound and the pAkt reaction mix was added to the cell lysate. 384 well compound plates were prepared containing 1 μl of compound per well starting at 5 mM and diluted 1:2 across the row, resulting in a 22 well serial dilution. 39 μl of growth media was added to the compound plate in rows 1-22 using the PerkinElmer® Flexprop PLUS resulting in a DMSO concentration of 2.5%. The cell plates and diluted compound plates were put onto the VELOCITY11™ VPREP™ 384 ST where the compound plate was mixed and 5 μl of serially diluted compound or controls was added to the cell plate. The final concentration of the compounds was 25 μM serially diluted to 11.9 pM in 0.5% DMSO. The cell plates were then incubated with compound for two hours at 37° Celsius, 5% CO2. After two hours, the media in the cell plates was aspirated using the BioTek® ELx405HT plate washer (Winooski, Vt.) removing the majority of media and compound without disturbing the adherent U87 cells. The following assay reagents are components of the SureFire® Akt (Ser 473) Phosphorylation 50K Point Kit (TGR BioSciences, Adelaide, Australia) and an IgG Detection Kit (PerkinElmer, Waltham, Mass.). 5 μl of 1× Lysis Buffer was added to each well using the PerkinElmer® Flexprop PLUS. The plates were then incubated at room temperature on a shaker for ten minutes. The AlphaScreen® reaction was prepared under low light conditions (subdued or green light) including p-Akt (Ser 473) Reaction Buffer, Dilution Buffer, Activation Buffer, Acceptor Beads and Donor Beads at a ratio of 40:20:10:1:1 respectively. The AlphaScreen® reaction was added to the cell lysate at 6 μl per well using the PerkinElmer® Flexprop PLUS. The plates were placed in a humid environment to reduce edge effects and incubated overnight at room temperature with restricted air flow in the dark.
On the final day of the experiment, the plates were read on the PerkinElmer® EnVision™ 2103 Multilable Reader using the standard AlphaScreen® readout. The POC is calculated and the data is analyzed to report the IC50 IP for pAkt at Serine 473.
Activity data for the compounds tested in the PI3K cell based Akt assay is provided in Table 1 under the column heading U87

Chain of PI3Kα (P42336 whole entry): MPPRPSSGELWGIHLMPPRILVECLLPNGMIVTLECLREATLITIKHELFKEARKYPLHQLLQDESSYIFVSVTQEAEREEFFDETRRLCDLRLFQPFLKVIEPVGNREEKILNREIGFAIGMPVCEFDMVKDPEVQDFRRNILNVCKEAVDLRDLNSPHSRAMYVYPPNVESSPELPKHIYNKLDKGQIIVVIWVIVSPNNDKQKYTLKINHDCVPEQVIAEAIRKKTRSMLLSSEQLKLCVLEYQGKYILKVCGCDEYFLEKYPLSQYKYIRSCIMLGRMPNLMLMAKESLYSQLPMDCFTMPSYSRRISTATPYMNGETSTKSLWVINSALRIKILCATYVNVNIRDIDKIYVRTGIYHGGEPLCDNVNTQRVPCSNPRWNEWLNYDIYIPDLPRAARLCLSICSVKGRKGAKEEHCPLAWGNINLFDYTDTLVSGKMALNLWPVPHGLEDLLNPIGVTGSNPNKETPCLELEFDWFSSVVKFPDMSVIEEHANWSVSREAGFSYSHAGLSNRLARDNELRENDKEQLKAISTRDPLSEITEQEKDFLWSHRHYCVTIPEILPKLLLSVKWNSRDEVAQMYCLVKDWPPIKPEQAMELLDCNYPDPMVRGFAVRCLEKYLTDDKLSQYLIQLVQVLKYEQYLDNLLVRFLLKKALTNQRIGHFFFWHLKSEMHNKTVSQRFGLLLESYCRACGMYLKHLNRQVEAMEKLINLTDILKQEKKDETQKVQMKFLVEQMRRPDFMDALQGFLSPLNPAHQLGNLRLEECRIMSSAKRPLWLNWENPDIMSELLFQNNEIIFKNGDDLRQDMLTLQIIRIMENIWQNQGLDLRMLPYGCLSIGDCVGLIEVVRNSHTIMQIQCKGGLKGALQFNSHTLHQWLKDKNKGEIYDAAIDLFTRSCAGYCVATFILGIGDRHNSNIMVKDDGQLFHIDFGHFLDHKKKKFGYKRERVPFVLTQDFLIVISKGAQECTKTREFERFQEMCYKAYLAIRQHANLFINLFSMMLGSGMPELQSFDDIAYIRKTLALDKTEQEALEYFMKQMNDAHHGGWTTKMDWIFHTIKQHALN
Chain of PI3Kα (P27986 whole entry partner): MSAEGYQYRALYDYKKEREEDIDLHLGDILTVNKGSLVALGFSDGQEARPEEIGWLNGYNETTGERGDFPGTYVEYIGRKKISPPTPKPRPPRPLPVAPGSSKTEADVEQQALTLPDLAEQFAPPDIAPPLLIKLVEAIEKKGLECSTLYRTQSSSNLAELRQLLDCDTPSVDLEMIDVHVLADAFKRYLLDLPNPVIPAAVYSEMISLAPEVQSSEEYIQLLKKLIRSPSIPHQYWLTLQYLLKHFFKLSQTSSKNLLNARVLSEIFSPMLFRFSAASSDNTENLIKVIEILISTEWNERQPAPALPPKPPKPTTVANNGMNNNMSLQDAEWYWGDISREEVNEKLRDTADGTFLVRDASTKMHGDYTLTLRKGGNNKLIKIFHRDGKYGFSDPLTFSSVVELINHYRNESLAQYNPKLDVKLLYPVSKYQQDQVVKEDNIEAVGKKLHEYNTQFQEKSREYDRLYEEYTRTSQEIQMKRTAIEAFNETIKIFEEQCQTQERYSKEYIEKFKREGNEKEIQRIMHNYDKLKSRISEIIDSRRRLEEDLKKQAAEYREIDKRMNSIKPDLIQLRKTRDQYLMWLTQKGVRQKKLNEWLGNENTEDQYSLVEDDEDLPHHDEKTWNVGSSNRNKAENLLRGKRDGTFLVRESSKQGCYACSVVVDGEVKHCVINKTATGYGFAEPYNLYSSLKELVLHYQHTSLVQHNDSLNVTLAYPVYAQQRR

SMILES | pIC50 [1] | pIC50 [2]
O=S(=O)(Nc1cc(-c2cnc3ccccn23)cnc1Cl)c1ccc(F)cc1 [Example 3, N-(2-Chloro-5-imidazo[1,2-a]pyridin-3-yl-3-pyridinyl)-4-fluorobenzenesulfonamide] | 7.52 | –
Cc1ccn2c(-c3cnc(Cl)c(NS(=O)(=O)c4ccc(F)cc4)c3)cnc2c1 [Example 4, N-(2-Chloro-5-(7-methylimidazo[1,2-a]pyridin-3-yl)-3-pyridinyl)-4-fluorobenzenesulfonamide] | 7.89 | –
Cc1nc2ccc(Br)cn2c1-c1cnc(Cl)c(NS(=O)(=O)c2ccc(F)cc2)c1 [Example 5, N-(5-(6-Bromo-2-methylimidazo[1,2-a]pyridin-3-yl)-2-chloro-3-pyridinyl)-4-fluorobenzenesulfonamide] | 7.80 | 5.91
O=S(=O)(Nc1cc(-c2cnc3ccc(Br)cn23)cnc1Cl)c1ccc(F)cc1 [Example 6, N-(5-(6-Bromoimidazo[1,2-a]pyridin-3-yl)-2-chloro-3-pyridinyl)-4-fluorobenzenesulfonamide] | 7.85 | 6.68
O=S(=O)(Nc1cc(-c2cnc3ccc(-c4ccncc4)cn23)cnc1Cl)c1ccc(F)cc1 [Example 7, N-(2-Chloro-5-(6-(4-pyridinyl)imidazo[1,2-a]pyridin-3-yl)-3-pyridinyl)-4-fluorobenzenesulfonamide] | 8.30 | 7.38
O=S(=O)(Nc1cc(-c2cnc3ccc(-c4cccnc4)cn23)cnc1Cl)c1ccc(F)cc1 [Example 8, N-(2-Chloro-5-(6-(3-pyridinyl)imidazo[1,2-a]pyridin-3-yl)-3-pyridinyl)-4-fluorobenzenesulfonamide] | 8.40 | 7.08
O=S(=O)(Nc1cc(-c2cnc3ccc(N4CCOCC4)cn23)cnc1Cl)c1ccc(F)cc1 [Example 9, N-(2-Chloro-5-(6-(4-morpholinyl)imidazo[1,2-a]pyridin-3-yl)-3-pyridinyl)-4-fluorobenzenesulfonamide] | 8.22 | 7.12
COc1cc(-c2cnc3ccccn23)cnc1OC [Example 10, 3-(5,6-Dimethoxy-3-pyridinyl)imidazo[1,2-a]pyridine] | 4.80 | < 4.60
COc1cc(-c2cnc3ccc(Br)cn23)cnc1OC [Example 11, 6-Bromo-3-(5,6-dimethoxy-3-pyridinyl)imidazo[1,2-a]pyridine] | 5.82 | 5.30
COc1cc(-c2cnc3ccc(-c4ccncc4)cn23)cnc1OC [Example 12, 3-(5,6-Dimethoxy-3-pyridinyl)-6-(4-pyridinyl)imidazo[1,2-a]pyridine] | 6.06 | 5.66
COc1cc(-c2cnc3ccc(N4CCOC4=O)cn23)cnc1OC [Example 13, 3-(3-(5,6-Dimethoxy-3-pyridinyl)imidazo[1,2-a]pyridin-6-yl)-1,3-oxazolidin-2-one] | 5.33 | < 4.60
COc1cc(-c2cnc3ccc(N4CCOCC4)cn23)cnc1OC [Example 16, 3-(5,6-Dimethoxy-3-pyridinyl)-6-(4-morpholinyl)imidazo[1,2-a]pyridine] | – | 5.40
CN(C)S(=O)(=O)Nc1cc(-c2cnc3ccc(-c4ccncc4)cn23)cnc1Cl [Example 18, N-(2-Chloro-5-(6-(pyridin-4-yl)imidazo[1,2-a]pyridin-3-yl)pyridin-3-yl)dimethylaminosulfonamide] | – | 8.15
CN(C)S(=O)(=O)Nc1cc(-c2cnc3ccc(-c4ccnc(C(F)(F)F)c4)cn23)cnc1Cl [Example 19, N-(2-Chloro-5-(6-(2-(trifluoromethyl)pyridin-4-yl)imidazo[1,2-a]pyridin-3-yl)pyridin-3-yl)dimethylaminosulfonamid] | – | 8.05
CS(=O)(=O)Nc1cc(-c2cnc3cc(-c4cccnc4)ccn23)cnc1Cl [Example 20, N-(2-Chloro-5-(7-(pyridin-3-yl)imidazo[1,2-a]pyridin-3-yl)pyridin-3-yl)methanesulfonamide] | – | 7.49
CN(C)S(=O)(=O)Nc1cc(-c2cnc3cc(-c4ccncc4)ccn23)cnc1Cl [Example 21, N′-(2-Chloro-5-(7-(4-pyridinyl)imidazo[1,2-a]pyridin-3-yl)-3-pyridinyl)-N,N-dimethylsulfamide] | – | 6.55
CN(C)S(=O)(=O)Nc1cc(-c2cnc3cc(-c4cccnc4)ccn23)cnc1Cl [Example 22, N′-(2-Chloro-5-(7-(3-pyridinyl)imidazo[1,2-a]pyridin-3-yl)-3-pyridinyl)-N,N-dimethylsulfamide] | – | 6.77
Cc1cc2ncc(-c3cnc(Cl)c(NS(=O)(=O)N(C)C)c3)n2cc1-c1ccncc1 [Example 23, N′-(2-Chloro-5-(7-methyl-6-(4-pyridinyl)imidazo[1,2-a]pyridin-3-yl)-3-pyridinyl)-N,N-dimethylsulfamide] | – | 8.10
O=S(=O)(Nc1cc(-c2cnc3ccc(Cl)nn23)cnc1Cl)c1ccc(F)cc1 [Example 25, N-(2-Chloro-5-(6-chloroimidazo[1,2-b]pyridazin-3-yl)pyridin-3-yl)-4-fluorobenzenesulfonamide] | 7.33 | –

From patent US8729074B2, “Inhibitors of PI3 kinase” (Amgen Inc., priority 2009, dated 2014)
